Results reported in US20180116983A1, “COMPOUNDS FOR TREATING DISORDERS ASSOCIATED WITH BK CHANNEL MODULATION” (Canbex Therapeutics Limited, priority 2015, published 2018).
Entries after “also recorded” stand apart in the source; their conditions may differ.

How the values were obtained:
Half-life by route = format: in vivo
BK channel = BK channel (Homo sapiens, UniProt Q12791); assay: Inside-out patch clamp (single channel) on EA.hy926 cells; format: cell-based; set-up: The human umbilical vein derived endothelial cell line, EA.hy926; endogenous in cells; host or cells: EA.hy926 human endothelial cell line
Description: The human umbilical vein derived endothelial cell line, EA.hy926 (Edgell et al., Proc Natl Acad Sci USA. 1983 June; 80(12): 3734-7) at passage >45 was grown in DMEM containing 10% FCS and 1% HAT (5 mM hypoxanthine, 20 μM aminopterin, 0.8 mM thymidine) and cells were maintained in an incubator at 37° C. in 5% CO2 atmosphere. Cells were plated on either 10 mm (for patch-clamp recordings) or 30 mm glass cover slips (for Ca^2+ measurements).
Single-channel recordings were obtained from excised inside-out membrane patches in symmetrical solutions. The pipettes were filled with (in mM) 140 KCl, 10 HEPES, 1 MgCl2, 5 EGTA, 4,931 CaCl2 with pH 7.2 by adding KOH (i.e. 10 μM free Ca^2+, G. Droogmans, Leuven, Belgium; ftp://ftp.cc.kuleuven.ac.be/pub/droodmans/cabuf.zip). Cells were perfused with a standard bath solution containing (in mM) 140 NaCl, 5 KCl, 1.2 MgCl2, 10 HEPES, 10 glucose, 2.4 CaCl2. Following gigaseal formation, bath solution was switched to the following (in mM) 140 KCl, 10 HEPES, 1 MgCl2, 5 EGTA and a desired free Ca^2+ concentration which was adjusted by adding different amounts of CaCl2 calculated by the program CaBuf. pH was adjusted to 7.2 by adding KOH. Membrane currents and potential were recorded using a List EPC7 amplifier (List, Germany) and pClamp (version 8.2, Axon Instruments) software.

mouse vas deferens = assay: βγ-methylene ATP-induced contraction of mouse vas deferens; conditions: 100 nM; electrically unstimulated vasa deferentia
Description: Mouse vas deferens were treated with either DMSO vehicle or 100 nM VSN16R 30 min before the first organ bath injection of various concentrations of βγ-methylene ATP into the organ bath (FIG. 16). The results represent the mean±SEM of βγ-methylene ATP-induced increases in tension (expressed in grams) of electrically unstimulated vasa deferentia. (n=6/group).

rat mesenteric arteries = assay: Vasodilation in rat mesenteric arteries (wire myograph)
Description: Rats were stunned by a blow to the back of their neck and killed by cervical dislocation in compliance with schedule 1 of the UK Animals (Scientific Procedures) Act 1986.
Segments (2 mm in length) were mounted in a Mulvany-Halpern type wire myograph (Model 610M; Danish Myo Technology, Aarhus, Denmark) and maintained at 37° C. in gassed (95% O2/5% CO2) Krebs-Henseleit solution of the following composition (mM): NaCl 118, KCl 4.7, MgSO4 1.2, KH2PO4 1.2, NaHCO, 25, CaCl2 2, D-glucose 10 as previously described (Ho and Randall, 2007). Arteries were equilibrated and set to a basal tension of 2-2.5 mN. The integrity of the endothelium was assessed by precontracting the vessel with 10 μM methoxamine (an α1-adrenoceptor agonist), followed by relaxation with 10 μM carbachol (a muscarinic acetylcholine receptor agonist); vessels showing relaxations of greater than 90% were designated as endothelium-intact. When endothelium was not required, it was removed by rubbing the intima with a human hair; carbachol-induced relaxation of less than 10% indicated successful removal. After the test for endothelial integrity, arteries were left for 30 min and then precontracted with 10 μM methoxamine (or 60 mM KCl), this was followed by construction of a cumulative concentration-relaxation curve to VSN16R (10 nM-1 μM). Most experiments were performed in matched vessels; effects of putative modulators or endothelial removal were compared with the control responses obtained in separate vessels of the same rat. Potential modulators were added to the myograph bath 30 min before measurement, and kept present during, construction of the concentration-relaxation curve.

[1] = test system: C57BL/6.Fmr1 knockout mice; assay: Contextual fear conditioning in Fmr1 knockout mice; format: in vivo, mouse; conditions: Fmr1 knockout mice, 2 mg/kg i.v.
Description: Animals: C57BL/6.J. Fmr1-K02 mice, which have a deletion of the promoter and exonl of the Fmr1 gene (Mientjes et al., 2006) and C57BL/6J wild type (WT) were originated from the Jackson laboratory (Ann Harbor, USA). Mice were housed in groups (4-6 per cage) and all animals were provided with ad libitum food and water unless otherwise stated. Mice were maintained on a 12 h light/12 h dark cycle (lights off 19:00 to 7:00) in a temperature-controlled environment (21±1° C.). Testing was conducted in the light phase. Mice were housed in commercial cages and experiments were performed in line with the United Kingdom Animals (Scientific procedures) Act 1986. All experiments were conducted with experimentors blind to genotype and drug treatment. Each experimental group contained 10 animals.
Drug Treatment: VSN16R was dissolved in saline for injection intravenously via a tail vein using 2 mg/kg a 30 g needle in a volume of 0.1 ml. Animals were inspected for differences in coat appearance, to detect whether any piloerection was present. The eye condition (runny eyes or porphyria, ptosis), gait appearance, tremor, tail tone, reactivity to handling was assessed to detect adverse behavioural effect.
Contextual fear conditioning: Animals are trained to expect an electroshock treatment within a defined environment, such that on subsequent presentation of the environment, freezing behaviours are induced. […]

KNCMA1 = biological target: T1, KNCMA1 (Sus scrofa, UniProt O18866); assay: Whole-cell current in primary pig aortic endothelial cells; format: cell-based; conditions: no BK beta chains
T1 construct: endogenous in cells; host or cells: primary pig aortic endothelial cells
Excerpt: Pig aortic endothelial cells only express KNCMAI and not KNCMB1-4 (Papassotiriou et al). Thus, the absence of stimulation indicates a lack of effect on KNCMA1.

Chain of BK channel (Q12791 1-1178 isoform Q12791-5): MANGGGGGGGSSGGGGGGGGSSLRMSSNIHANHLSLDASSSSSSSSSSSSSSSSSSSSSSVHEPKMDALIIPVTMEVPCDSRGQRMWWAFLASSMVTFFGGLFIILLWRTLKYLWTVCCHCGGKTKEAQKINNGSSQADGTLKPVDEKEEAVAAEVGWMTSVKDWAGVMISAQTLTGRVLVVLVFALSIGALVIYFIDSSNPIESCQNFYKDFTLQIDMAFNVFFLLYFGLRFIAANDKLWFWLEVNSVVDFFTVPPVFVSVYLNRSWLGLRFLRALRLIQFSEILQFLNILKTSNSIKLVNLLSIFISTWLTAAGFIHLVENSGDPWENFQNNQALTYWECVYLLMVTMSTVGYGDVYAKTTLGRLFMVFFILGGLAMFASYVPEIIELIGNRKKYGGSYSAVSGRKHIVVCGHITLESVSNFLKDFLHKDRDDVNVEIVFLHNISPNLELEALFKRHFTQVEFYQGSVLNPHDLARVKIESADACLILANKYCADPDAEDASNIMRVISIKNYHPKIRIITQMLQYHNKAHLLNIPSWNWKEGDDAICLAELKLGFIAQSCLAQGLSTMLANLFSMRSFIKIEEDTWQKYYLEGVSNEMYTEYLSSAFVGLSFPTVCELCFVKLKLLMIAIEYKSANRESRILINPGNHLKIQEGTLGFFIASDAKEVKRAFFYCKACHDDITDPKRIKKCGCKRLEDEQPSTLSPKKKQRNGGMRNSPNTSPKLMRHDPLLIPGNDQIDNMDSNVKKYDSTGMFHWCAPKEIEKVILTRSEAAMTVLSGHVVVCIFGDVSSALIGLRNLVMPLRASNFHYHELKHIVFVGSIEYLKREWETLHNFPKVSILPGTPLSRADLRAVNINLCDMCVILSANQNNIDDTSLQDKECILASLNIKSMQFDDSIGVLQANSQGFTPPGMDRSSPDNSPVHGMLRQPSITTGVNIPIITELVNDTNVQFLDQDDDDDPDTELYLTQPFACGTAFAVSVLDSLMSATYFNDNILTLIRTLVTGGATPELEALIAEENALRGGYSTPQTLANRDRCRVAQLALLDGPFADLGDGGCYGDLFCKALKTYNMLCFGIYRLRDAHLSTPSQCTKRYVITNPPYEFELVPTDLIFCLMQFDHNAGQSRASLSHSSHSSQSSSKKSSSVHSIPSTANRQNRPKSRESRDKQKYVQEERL
Chain of BK channel (Q86W47 whole entry partner): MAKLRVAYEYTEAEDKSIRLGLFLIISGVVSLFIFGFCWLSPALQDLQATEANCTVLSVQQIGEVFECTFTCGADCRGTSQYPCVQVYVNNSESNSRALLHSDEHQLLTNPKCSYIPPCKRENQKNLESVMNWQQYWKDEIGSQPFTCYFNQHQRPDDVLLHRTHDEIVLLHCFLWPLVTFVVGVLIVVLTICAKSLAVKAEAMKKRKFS
T1 sequence (O18866 whole entry): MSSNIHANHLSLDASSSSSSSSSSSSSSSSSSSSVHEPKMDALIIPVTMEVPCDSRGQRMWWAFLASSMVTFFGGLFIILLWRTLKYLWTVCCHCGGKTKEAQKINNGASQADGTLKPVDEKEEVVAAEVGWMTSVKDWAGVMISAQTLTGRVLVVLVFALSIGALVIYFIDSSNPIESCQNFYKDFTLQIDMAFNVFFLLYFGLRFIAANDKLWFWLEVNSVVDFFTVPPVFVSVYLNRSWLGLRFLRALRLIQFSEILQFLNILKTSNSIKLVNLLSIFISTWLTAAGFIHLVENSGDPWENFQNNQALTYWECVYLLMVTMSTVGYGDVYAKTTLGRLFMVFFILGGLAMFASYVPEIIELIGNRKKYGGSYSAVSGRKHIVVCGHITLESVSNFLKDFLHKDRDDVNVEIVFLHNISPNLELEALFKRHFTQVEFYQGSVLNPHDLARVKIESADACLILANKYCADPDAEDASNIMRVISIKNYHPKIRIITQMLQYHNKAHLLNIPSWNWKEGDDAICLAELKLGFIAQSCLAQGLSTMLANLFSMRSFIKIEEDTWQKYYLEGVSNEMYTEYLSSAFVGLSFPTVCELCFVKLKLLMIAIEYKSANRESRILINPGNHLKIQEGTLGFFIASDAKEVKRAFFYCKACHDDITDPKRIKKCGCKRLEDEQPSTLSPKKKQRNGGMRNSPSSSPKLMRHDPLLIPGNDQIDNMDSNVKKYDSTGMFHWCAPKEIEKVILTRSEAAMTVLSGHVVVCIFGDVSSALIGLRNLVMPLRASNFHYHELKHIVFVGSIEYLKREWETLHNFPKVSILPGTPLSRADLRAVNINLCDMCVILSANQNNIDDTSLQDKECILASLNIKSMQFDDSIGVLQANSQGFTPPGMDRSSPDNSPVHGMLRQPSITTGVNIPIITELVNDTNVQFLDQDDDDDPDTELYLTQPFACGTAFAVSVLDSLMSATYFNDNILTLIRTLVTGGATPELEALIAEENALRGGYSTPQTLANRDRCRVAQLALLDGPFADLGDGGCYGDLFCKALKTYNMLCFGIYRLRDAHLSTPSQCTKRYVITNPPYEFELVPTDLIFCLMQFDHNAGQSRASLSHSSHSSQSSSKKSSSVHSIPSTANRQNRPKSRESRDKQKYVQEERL

With C[C@H](CO)NC(=O)c1cccc(/C=C\CCCC(=O)N(C)C)c1 [VSN16R] the t½ (Half-life by route; intravenous route) was 6 min, the “half-life, oral route relative to intravenous route” value (Half-life by route; oral vs intravenous) was 10 times and the “open probability of BKca channels” value (BK channel; EA.hy926 cells) was “increases the open probability of BKca channels”. For the same compound, the “activation of the response of the channel” value (BK channel; human EA.hy926 cells, calcium dependent) was “voltage and calcium dependent; also recorded: activation of the response of the channel”, the “effect on βγ-methylene ATP-induced contraction” value (mouse vas deferens) was “does not affect” and the “relaxation of rat mesenteric arteries in the presence of charybdotoxin” value (rat mesenteric arteries; 50 nM charybdotoxin) was “inhibited by antagonists of BKCa channels”. For the same compound, the “relaxation of rat mesenteric arteries in the presence of iberotoxin” value (rat mesenteric arteries; 50 nM iberotoxin) was “blocked by iberotoxin; also recorded: can be inhibited by the specific BK channel blocker iberiotoxin; also recorded: inhibited by antagonists of BKCa channels”, the “activation of calcium activated potassium channels in arterial vasodilation assay” value (rat mesenteric arteries; FIG. 9, reduction of endothelial tone) was “activates calcium activated potassium channels” and the “relaxation of rat mesenteric arteries in the presence of apamin alone” value (rat mesenteric arteries; apamin alone) was “non-significant blockade”. For the same compound, the “relaxation of rat mesenteric arteries in the presence of apamin and charybdotoxin” value (rat mesenteric arteries; combination of apamin and charybdotoxin) was “blocked”, the “relaxation of rat mesenteric arteries in the presence of 60 mM KCl” value (rat mesenteric arteries; extracellular 60 mM KCl) was “inhibiting VSN16R activity; also recorded: produced no relaxation” and the “relaxation of rat mesenteric arteries” value (rat mesenteric arteries; pre-contracted with methoxamine, endothelium intact vs denuded) was “relaxed; also recorded: can induce vasorelaxation in an endothelium-dependent (P<0.001) manner”. The “fear conditioning (freezing)” value [1] was “inhibits the development of fear conditioning; also recorded: significantly (P<0.001) limited the exaggerated behaviour” and the effect on current (KNCMA1) was “only a minor effect on current”.
